Source: US8680150B2, “Small molecule hematopoietic growth factor mimetic compounds that activate hematopoietic growth factor receptors” (Ligand Pharmaceuticals, Inc., priority 2009, dated 2014)

Test system: UT7/EPO Cell line
Test: Cell proliferation assay in UT7/EPO cell line (ViaLight Plus)
Format: cell-based, human
Settings: compound at 10 uM; efficacy relative to EPO (100%); UT7/EPO cells expressing endogenous EPO receptor, starved of EPO overnight; 72 hours at 37° C.
Protocol: The primary testing for the exemplified compounds was performed in UT7/EPO Cell line. UT7/EPO is human leukemia cell line, obtained from Dr. Norio Komatsu (Blood, Vol 82 (2), pp 456-464, 1993). These cells express endogenous EPO receptor and are dependant upon EPO for growth and proliferation. Briefly, the cells were starved of EPO overnight and plated in 96 or 384 well plates. The compounds were added to the cells at 10 uM concentration. The plates were then incubated at 37° C. for 72 hours. The proliferative effect of the compounds was measured by a commercially available kit from Lonza (ViaLight Plus).

SMILES | Activity (%)
COc1cccc(/C=N/NC(=O)c2ccc(OCc3ccccc3)cc2)c1 [Compound 149, 4-Benzyloxybenz(3-methoxybenzylidene)hydrazide] | 9.7
CN(C)c1ccc(C(=O)N/N=C/c2ccc3c(Cl)c[nH]c3c2)cc1 [Compound 180, 4-Dimethylaminobenz(3-chloro-6-indolidene)hydrazide] | 3.2
O=C(N/N=C/c1ccc2ccccc2c1)c1ccc(-c2ccccc2)cc1 [Compound 125, 4-Phenylbenz(2-naphthylidene)hydrazide] | 15
O=C(N/N=C/c1cccc(/C=C/c2ccccc2Cl)c1)c1ccc(-n2ccnc2)cc1 [Compound 191, 4-(1-Imidazolyl)benz(2E-(2-chlorophenyl)ethenylbenzylidene)hydrazide] | 6.2
COc1cccc(/C=N/NC(=O)c2ccc(-c3ccccc3F)cc2)c1 [Compound 161, 4-(2-Fluorophenyl)phenylbenz(3-methoxybenzylidene)hydrazide] | 12
COc1ccc(/C=N/NC(=O)c2ccc(N3CCCC3=O)cc2)cc1 [Compound 131, 4-(2-Oxopyrrolidino-1-)benz(4-methoxybenzylidene)hydrazide] | 15
COc1cc(/C=N/NC(=O)c2ccc(-c3ccccc3)cc2)cc(OC)c1 [Compound 160, 4-Phenylbenz(3,5-dimethoxybenzylidene)hydrazide] | 6.1
CN(C)c1ccc(C(=O)N/N=C/c2cccc(/C=C/c3ccccc3)c2)cc1 [Compound 170, 4-Dimethylaminobenz(3-(2E-phenylethenyl)benzylidene)hydrazide] | 4.7
O=C(N/N=C/c1ccc2ccccc2c1)c1ccc(O)cc1 [Compound 126, 4-Hydroxybenz(2-naphthylidene)hydrazide] | 3.4
COc1ccc(C(=O)N/N=C/c2cccc(OC)c2)cc1 [Compound 128, 4-Methoxybenz(3-methoxybenzylidene)hydrazide] | 5.6
C=CCO/N=C/c1cccc(/C=N/NC(=O)c2ccc(N(C)C)cc2)c1 [Compound 192, 4-Dimethylaminobenz(3-allyloxyiminomethylbenzylidene)hydrazide] | 5.3
C=Cc1cccc(/C=N/NC(=O)c2ccc(-c3ccccc3)cc2)c1 [Compound 164, 4-Phenylbenz(3-vinylbenzylidene)hydrazide] | 11
COc1cccc(/C=N/NC(=O)c2ccc(OCc3ccc(Cl)cc3)cc2)c1 [Compound 133, 4-(4-Chlorobenzyloxy)benz(3-methoxybenzylidene)hydrazide] | 14
O=C(N/N=C/c1ccccc1O)c1ccc(N2CCCC2=O)cc1 [Compound 123, 4-(2-Oxopyrrolidino-1-)benz(2-hydroxybenzylidene)hydrazide] | 5.1
O=C(N/N=C/c1ccc2[nH]ccc2c1)c1ccc(-c2ccccc2)cc1 [Compound 163, 4-Phenylbenz(5-indolidene)hydrazide] | 23
COc1cccc(/C=N/NC(=O)c2ccc(-c3ccccc3)cc2)c1 [Compound 140, 4-Phenylbenz(3-methoxybenzylidene)hydrazide] | 14
COc1ccc2c(c1)cc(C(=O)N/N=C/c1ccc(O)cc1)n2C [Compound 121, (1-Methyl-5-methoxyindole-2-)carboxyl(4-hydroxybenzylidene)hydrazide] | 12
Cc1cccc(C(=O)N/N=C/c2ccccc2O)c1 [Compound 124, 3-Methylbenz(2-hydroxybenzylidene)hydrazide] | 3.4
COc1cccc(/C=N/NC(=O)c2ccc(OCc3ccc(F)cc3)cc2)c1 [Compound 143, 4-(4-Fluorobenzyloxy)benz(3-methoxybenzylidene)hydrazide] | 14
C=Cc1ccc(COc2ccc(C(=O)N/N=C/c3cccc(OC)c3)cc2)cc1 [Compound 156, 4-(4-Vinylbenzyloxy)benz(3-methoxybenzylidene)hydrazide] | 7.9
COc1ccc(O)c(/C=N/NC(=O)COc2ccc3[nH]ccc3c2)c1 [Compound 173, 5-Indolyloxoacet(2-hydroxy-5-methoxybenzylidene)hydrazide] | 12
COc1cccc(/C=N/NC(=O)c2ccc(-n3ccnc3)cc2)c1 [Compound 193, 4-(1-Imidazolyl)benz(3-methoxybenzylidene)hydrazide] | 7.3
COc1cc(/C=N/NC(=O)c2ccc(N3CCCC3=O)cc2)ccc1O [Compound 130, 4-(2-Oxopyrrolidino-1-)benz(4-hydroxy-3-methoxybenzylidene)hydrazide] | 20
